The source made the active and inactive calls. The rule behind the calls is not given here. Bridge positions count the residues as written; N and C are the ends. Square brackets hold non-standard residues; d marks the D form. Peptide text beside a SMILES is read from it. AllylGly = C=CC[C@H](N)C(=O)O; Aoc = NCCCCCCCC(=O)O
What was measured:
[1] = molecular target: T1, Prostate-specific antigen (Homo sapiens) (UniProt P07288); experiment: Stimulation of KLK3 (unknown origin) proteolytic activity using chromogenic chymotrypsin MeO-Suc-Arg-Pro-Tyr-pNA substrate at 20 ug/ml pre-incubated for 30 mins before addition of substrate by […] relative to untreated control
T1 sequence (whole entry): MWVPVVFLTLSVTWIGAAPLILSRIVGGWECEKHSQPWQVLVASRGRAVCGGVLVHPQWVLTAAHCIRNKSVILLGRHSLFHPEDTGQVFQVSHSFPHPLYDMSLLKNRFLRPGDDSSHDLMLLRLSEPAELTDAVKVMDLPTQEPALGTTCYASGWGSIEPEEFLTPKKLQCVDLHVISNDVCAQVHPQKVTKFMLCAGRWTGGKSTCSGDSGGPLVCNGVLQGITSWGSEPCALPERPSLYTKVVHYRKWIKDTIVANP

[2] = molecular target: T1, Prostate-specific antigen (Homo sapiens); experiment: Stimulation of KLK3 (unknown origin) proteolytic activity using chromogenic chymotrypsin MeO-Suc-Arg-Pro-Tyr-pNA substrate at 200 ug/ml pre-incubated for 30 mins before addition of substrate by […] relative to untreated control

Work on CC(C)[C@@H]1NC(=O)[C@@H](N)CSSC[C@@H](C(N)=O)NC(=O)[C@H]([C@@H](C)O)NC(=O)[C@H](Cc2c[nH]c3ccccc23)NC(=O)[C@@H]2CSSC[C@H](NC(=O)[C@H](Cc3ccc(O)cc3)NC(=O)[C@H](C)NC1=O)C(=O)N[C@@H](Cc1ccccc1)C(=O)N[C@@H](CCC(=O)O)C(=O)N[C@@H](Cc1cnc[nH]1)C(=O)N[C@@H](Cc1cnc[nH]1)C(=O)N2 (H-CVAYCFEHHCWTC-NH2; disulfide 1-13, 5-10) yielded an Activity [1] of 583%.

With CC[C@H](C)[C@@H]1NC(=O)[C@@H]2CSSC[C@H](NC(=O)[C@H](Cc3cnc[nH]3)NC(=O)[C@H](C)NC(=O)[C@H](C)NC1=O)C(=O)N[C@@H](Cc1c[nH]c3ccccc13)C(=O)N[C@@H]([C@@H](C)O)C(=O)N[C@H](C(N)=O)CSSC[C@H](N)C(=O)N[C@@H](C(C)C)C(=O)N[C@@H](C)C(=O)N[C@@H](Cc1ccc(O)cc1)C(=O)N2 (H-CVAYCIAAHCWTC-NH2; disulfide 1-13, 5-10) the Activity [1] was 476%.

Compound CC[C@H](C)[C@@H]1NC(=O)[C@@H]2C/C=C/C[C@H](NC(=O)[C@H](Cc3cnc[nH]3)NC(=O)[C@H](Cc3cnc[nH]3)NC(=O)[C@H](CCC(=O)O)NC1=O)C(=O)N[C@@H](Cc1c[nH]c3ccccc13)C(=O)N[C@@H]([C@@H](C)O)C(=O)N[C@H](C(=O)O)CSSC[C@H](N)C(=O)N[C@@H](C(C)C)C(=O)N[C@@H](C)C(=O)N[C@@H](Cc1ccc(O)cc1)C(=O)N2 (H-CVAY[AllylGly]IEHH[AllylGly]WTC-OH; disulfide 1-13; staple (E) 5-10) has an Activity [1] of 189%.

With CC[C@H](C)[C@@H]1NC(=O)[C@@H]2CSSC[C@H](NC(=O)[C@H](Cc3cnc[nH]3)NC(=O)[C@H](Cc3cnc[nH]3)NC(=O)[C@H](CCC(=O)O)NC1=O)C(=O)N[C@@H](Cc1c[nH]c3ccccc13)C(=O)N[C@@H]([C@@H](C)O)C(=O)N[C@H](C(=O)O)CSSC[C@H](N)C(=O)N[C@@H](C(C)C)C(=O)N[C@@H](C)C(=O)N[C@@H](Cc1ccc(O)cc1)C(=O)N2 (H-CVAYCIEHHCWTC-OH; disulfide 1-13, 5-10) the Activity [1] was 625%.

For CC[C@H](C)[C@@H]1NC(=O)[C@@H]2CSSC[C@H](NC(=O)[C@H](C)NC(=O)[C@H](C)NC(=O)[C@H](CCC(=O)O)NC1=O)C(=O)N[C@@H](Cc1c[nH]c3ccccc13)C(=O)N[C@@H]([C@@H](C)O)C(=O)N[C@H](C(N)=O)CSSC[C@H](N)C(=O)N[C@@H](C(C)C)C(=O)N[C@@H](C)C(=O)N[C@@H](Cc1ccc(O)cc1)C(=O)N2 (H-CVAYCIEAACWTC-NH2; disulfide 1-13, 5-10), the Activity [1] was 226%.

CC(C)[C@@H]1NC(=O)[C@@H](N)CSSC[C@@H](C(N)=O)NC(=O)[C@H]([C@@H](C)O)NC(=O)[C@H](Cc2c[nH]c3ccccc23)NC(=O)[C@@H]2CSSC[C@H](NC(=O)[C@H](Cc3ccc(O)cc3)NC(=O)[C@H](C)NC1=O)C(=O)NCC(=O)N[C@@H](CCC(=O)O)C(=O)N[C@@H](Cc1cnc[nH]1)C(=O)N[C@@H](Cc1cnc[nH]1)C(=O)N2 (H-CVAYCGEHHCWTC-NH2; disulfide 1-13, 5-10) gave an Activity [1] of 152%.

CC[C@H](C)[C@@H]1NC(=O)[C@@H]2CSSC[C@H](NC(=O)[C@H](C)NC(=O)[C@H](C)NC(=O)[C@H](C)NC1=O)C(=O)N[C@@H](Cc1c[nH]c3ccccc13)C(=O)N[C@@H]([C@@H](C)O)C(=O)N[C@H](C(N)=O)CSSC[C@H](N)C(=O)N[C@@H](C(C)C)C(=O)N[C@@H](C)C(=O)N[C@@H](Cc1ccc(O)cc1)C(=O)N2 (H-CVAYCIAAACWTC-NH2; disulfide 1-13, 5-10) was tested, and the Activity [1] was 165%.

For CC(C)[C@@H]1NC(=O)[C@@H](N)CSSC[C@@H](C(=O)O)NC(=O)[C@H]([C@@H](C)O)NC(=O)[C@H](Cc2c[nH]c3ccccc23)NC(=O)CCCCCCCNC(=O)[C@H](Cc2ccc(O)cc2)NC(=O)[C@H](C)NC1=O (H-CVAY[Aoc]WTC-OH; disulfide 1-8), the Activity [1] was “inactive”.

With CC[C@H](C)[C@@H]1NC(=O)[C@@H]2C/C=C/C[C@H](NC(=O)[C@H](Cc3cnc[nH]3)NC(=O)[C@H](C)NC(=O)[C@H](C)NC1=O)C(=O)N[C@@H](Cc1c[nH]c3ccccc13)C(=O)N[C@@H]([C@@H](C)O)C(=O)N[C@H](C(=O)O)CSSC[C@H](N)C(=O)N[C@@H](C(C)C)C(=O)N[C@@H](C)C(=O)N[C@@H](Cc1ccc(O)cc1)C(=O)N2 (H-CVAY[AllylGly]IAAH[AllylGly]WTC-OH; disulfide 1-13; staple (E) 5-10) the Activity [1] was 225% and the fold change (FC) [2] was 4.

For CC(C)[C@@H]1NC(=O)[C@@H](N)CSSC[C@@H](C(N)=O)NC(=O)[C@H]([C@@H](C)O)NC(=O)[C@H](Cc2c[nH]c3ccccc23)NC(=O)[C@@H]2CSSC[C@H](NC(=O)[C@H](Cc3ccc(O)cc3)NC(=O)[C@H](C)NC1=O)C(=O)N[C@@H](C)C(=O)N[C@@H](CCC(=O)O)C(=O)N[C@@H](Cc1cnc[nH]1)C(=O)N[C@@H](Cc1cnc[nH]1)C(=O)N2 (H-CVAYCAEHHCWTC-NH2; disulfide 1-13, 5-10), the Activity [1] was 299%.

Compound CC(C)[C@@H]1NC(=O)[C@@H](N)CSSC[C@@H](C(N)=O)NC(=O)[C@H]([C@@H](C)O)NC(=O)[C@H](Cc2c[nH]c3ccccc23)NC(=O)[C@H](C)NC(=O)[C@@H]2CSSC[C@H](NC(=O)[C@H](C)NC(=O)[C@H](Cc3ccc(O)cc3)NC(=O)[C@H](C)NC1=O)C(=O)N[C@@H](CCC(=O)O)C(=O)N[C@@H](Cc1cnc[nH]1)C(=O)N2 (H-CVAYACEHCAWTC-NH2; disulfide 1-13, 6-9) has an Activity [1] of 84%.

For CC(C)C[C@@H]1NC(=O)[C@@H]2CSSC[C@H](NC(=O)[C@H](Cc3cnc[nH]3)NC(=O)[C@H](Cc3cnc[nH]3)NC(=O)[C@H](CCC(=O)O)NC1=O)C(=O)N[C@@H](Cc1c[nH]c3ccccc13)C(=O)N[C@@H]([C@@H](C)O)C(=O)N[C@H](C(N)=O)CSSC[C@H](N)C(=O)N[C@@H](C(C)C)C(=O)N[C@@H](C)C(=O)N[C@@H](Cc1ccc(O)cc1)C(=O)N2 (H-CVAYCLEHHCWTC-NH2; disulfide 1-13, 5-10), the Activity [1] was 436%.

CC(C)[C@@H]1NC(=O)[C@@H](N)CSSC[C@@H](C(=O)O)NC(=O)[C@H]([C@@H](C)O)NC(=O)[C@H](Cc2c[nH]c3ccccc23)NC(=O)[C@@H]2C/C=C/C[C@H](NC(=O)[C@H](Cc3ccc(O)cc3)NC(=O)[C@H](C)NC1=O)C(=O)N[C@@H](Cc1ccccc1)C(=O)N[C@@H](CCC(=O)O)C(=O)N[C@@H](Cc1cnc[nH]1)C(=O)N[C@@H](Cc1cnc[nH]1)C(=O)N2 (H-CVAY[AllylGly]FEHH[AllylGly]WTC-OH; disulfide 1-13; staple (E) 5-10) was tested, and the Activity [1] was 223% and the fold change (FC) [2] was 4.

CC[C@H](C)[C@@H]1NC(=O)[C@@H](NC(=O)[C@H](Cc2ccc(O)cc2)NC(C)=O)C/C=C/C[C@@H](C(=O)N[C@@H](Cc2c[nH]c3ccccc23)C(N)=O)NC(=O)[C@H](Cc2cnc[nH]2)NC(=O)[C@H](Cc2cnc[nH]2)NC(=O)[C@H](CCC(=O)O)NC1=O (Ac-Y[AllylGly]IEHH[AllylGly]W-NH2; staple (E) 2-7) was tested, and the Activity [1] was “inactive”.

CC[C@H](C)[C@@H]1NC(=O)[C@@H]2CSSC[C@H](NC(=O)[C@H](Cc3cnc[nH]3)NC(=O)[C@H](Cc3cnc[nH]3)NC(=O)[C@H](CCC(=O)O)NC1=O)C(=O)N[C@@H](Cc1c[nH]c3ccccc13)C(=O)N[C@@H](C)C(=O)N[C@H](C(N)=O)CSSC[C@H](N)C(=O)N[C@@H](C)C(=O)N[C@@H](C)C(=O)N[C@@H](Cc1ccc(O)cc1)C(=O)N2 (H-CAAYCIEHHCWAC-NH2; disulfide 1-13, 5-10) was tested, and the Activity [1] was 127%.

CC[C@H](C)[C@@H]1NC(=O)[C@@H](NC(=O)[C@H](Cc2ccc(O)cc2)NC(C)=O)C/C=C/C[C@@H](C(=O)N[C@@H](Cc2c[nH]c3ccccc23)C(=O)O)NC(=O)[C@H](Cc2cnc[nH]2)NC(=O)[C@H](Cc2cnc[nH]2)NC(=O)[C@H](CCC(=O)O)NC1=O (Ac-Y[AllylGly]IEHH[AllylGly]W-OH; staple (E) 2-7) was tested, and the Activity [1] was “inactive”.

Compound CC[C@H](C)[C@@H]1NC(=O)[C@@H]2CSSC[C@H](NC(=O)[C@H](C)NC(=O)[C@H](Cc3cnc[nH]3)NC(=O)[C@H](C)NC1=O)C(=O)N[C@@H](Cc1c[nH]c3ccccc13)C(=O)N[C@@H]([C@@H](C)O)C(=O)N[C@H](C(N)=O)CSSC[C@H](N)C(=O)N[C@@H](C(C)C)C(=O)N[C@@H](C)C(=O)N[C@@H](Cc1ccc(O)cc1)C(=O)N2 (H-CVAYCIAHACWTC-NH2; disulfide 1-13, 5-10) has an Activity [1] of 239%.
